From PubChem BioAssay AID1963863 (Molecular Pharmacology Branch, DTP, NCI, 2024)

Test system: 931267-113-T-J1-PDC KRAS spheroid with HUVEC/MSC, viability
Experiment: Anticancer human tumor 931267-113-T-J1-PDC patient-derived colon adenocarcinoma cell line growth inhibition [KRAS2]
Conditions: for IC50: curve of first compound; for viability, T/C: stronger effect = lower value
From the text: Multicellular complex tumor spheroid response to RAS pathway inhibitors in combination with a targeted agents in patient-derived cell lines with oncogenic KRAS variants from multiple cancer types
A high-throughput screen of multi-cell type tumor spheroids was designed to identify active combinations of targeted small molecules and KRAS pathway inhibitors. Complex spheroids include a stromal component modeled by human endothelial cells (HUVEC) and fibroblasts modeled by human mesenchymal stem cells (MSCs). The concentration ranges selected for each drug and investigational agent were based upon clinically achievable concentrations if the clinical Cmax of the agent was known.
Compounds. The drugs and investigational agents: BI-3406 (NSC825286), BAY-293 (NSC824723), batoprotafib (TNO155; NSC825523), sotorasib (AMG 510; NSC818433), MRTX1257 (NSC819558), elimusertib (BAY 1895344; NSC800525), molibresib (GSK525762; NSC774829), temuterkib (LY3214996; NSC803410), venetoclax (NSC766270), alisertib (NSC759677), olaparib (NSC753686), talazoparib (NSC767125), erdafitinib (NSC781556), ipatasertib (NSC767898), cabozantinib (NSC761068), nintedanib (NSC756659), abemaciclib (NSC768073), docetaxel (NSC628503), trametinib (NSC758246), and sapanisertib (NSC764658) were obtained from the National Cancer Institute (NCI) Developmental Therapeutics Program Chemical Repository. The FDA-approved anticancer drug set is available from the Developmental Therapeutics Program. […] The stock solutions were prepared in dimethyl sulfoxide (DMSO, Sigma-Aldrich, St. Louis, MO, cat. D2650) at 800-fold the tested concentration and stored at -70 degrees C prior to their use. All drugs and investigational agents were tested over a range starting from a high concentration at or near the clinical Cmax and decreasing in half-log increments. If the clinical Cmax for an agent had not been determined, the highest concentration tested was 10 microM.
Cell Culture. All cells were maintained in an incubator at 37 degrees C and 5% CO2 with 95% humidity. The PDC lines were cultured according to standard operating procedures established by the NCI PDMR (https://pdmr.cancer.gov/sops/default.htm). Briefly, all PDCs were thawed and cultured in Matrigel-coated flasks prepared with a working solution of 1X Ham's F-12 nutrient mix, without supplementation (Invitrogen, Waltham, MA, cat. 11765054), 100 U/mL penicillin-streptomycin (Invitrogen, cat. 15140122), and 2.5% Matrigel (Corning Inc., Corning, NY, cat. 354248) for the first three passages. All PDCs were cultured in complete DMEM/F-12 media containing advanced DMEM/F-12 (Invitrogen, cat. 12634028), 4.9% defined fetal bovine serum, heat inactivated (HyClone Laboratories Inc., Logan, UT, cat. SH30070.03HI), 389 ng/mL hydrocortisone (Sigma-Aldrich, cat. H4001), 9.7 ng/mL human EGF recombinant protein (Invitrogen, cat. PHG0313), 23.4 microg/mL adenine (Sigma-Aldrich, cat. A2786), 97.3 U/mL penicillin-streptomycin (Invitrogen, cat. 15140122), 1.9 mM L-glutamine (Invitrogen, cat. 25030081), and 9.7 microM Y-27632 dihydrochloride (Tocris Bioscience, Bristol, United Kingdom, cat. 1254). The PDCs were cultured in complete DMEM/F12 media without 9.7 microM Y-27632 dihydrochloride for at least two passages prior to the screen. The established cell line HOP-62 was cultured in RPMI 1640 medium, HEPES (Invitrogen, cat. 22400105) with 10% defined fetal bovine serum (HyClone Laboratories Inc., cat. SH30070.03) and 2 mM L-glutamine (Invitrogen, cat. 25030081). The pooled donor HUVEC were cultured in endothelial cell growth medium 2 (PromoCell, Heidelberg, Germany, cat. C-22011) and the hMSC were cultured in mesenchymal stem cell growth medium 2 (PromoCell, cat. C-28009). For all experiments, HUVEC and hMSC were used at passages </=5, while the malignant cell lines were used at passages </=15. […]
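Further: compound exposure lasted 7 days before the readout.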
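Wherever viability, T/C is given: 100% = DMSO vehicle control viability.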

SMILES: CC1(C)CCC(CN2CCN(c3ccc(C(=O)NS(=O)(=O)c4ccc(NCC5CCOCC5)c([N+](=O)[O-])c4)c(Oc4cnc5[nH]ccc5c4)c3)CC2)=C(c2ccc(Cl)cc2)C1 + CC1OCC2(CCN(c3cnc(Sc4ccnc(N)c4Cl)c(N)n3)CC2)C1N
- IC50 (second compound 0.1 µM): 1.71 µM
- IC50 (second compound 0.316 µM): 1.64 µM
- IC50 (second compound 1 µM): 1.74 µM
- IC50 (second compound 3.16 µM): 1.67 µM
- IC50 (second compound 10 µM): 1.66 µM
- viability, T/C (second compound 0.1 µM, first compound 0.0316 µM): 104%
- viability, T/C (second compound 0.1 µM, first compound 0.1 µM): 84.1%
- viability, T/C (second compound 0.1 µM, first compound 0.316 µM): 87.8%
- viability, T/C (second compound 0.1 µM, first compound 1 µM): 75.7%
- viability, T/C (second compound 0.1 µM, first compound 3.16 µM): 20.9%
- viability, T/C (second compound 0.1 µM, first compound 10 µM): 8.53%
- viability, T/C (second compound 0.316 µM, first compound 0.0316 µM): 91%
- viability, T/C (second compound 0.316 µM, first compound 0.1 µM): 81.3%
- viability, T/C (second compound 0.316 µM, first compound 0.316 µM): 73.2%
- viability, T/C (second compound 0.316 µM, first compound 1 µM): 72.8%
- viability, T/C (second compound 0.316 µM, first compound 3.16 µM): 20.7%
- viability, T/C (second compound 0.316 µM, first compound 10 µM): 3.06%
- viability, T/C (second compound 1 µM, first compound 0.0316 µM): 84.9%
- viability, T/C (second compound 1 µM, first compound 0.1 µM): 75.9%
- viability, T/C (second compound 1 µM, first compound 0.316 µM): 67.5%
- viability, T/C (second compound 1 µM, first compound 1 µM): 81.3%
- viability, T/C (second compound 1 µM, first compound 3.16 µM): 20.5%
- viability, T/C (second compound 1 µM, first compound 10 µM): 1.45%
- viability, T/C (second compound 3.16 µM, first compound 0.0316 µM): 61.1%
- viability, T/C (second compound 3.16 µM, first compound 0.1 µM): 77.8%
- viability, T/C (second compound 3.16 µM, first compound 0.316 µM): 70.2%
- viability, T/C (second compound 3.16 µM, first compound 1 µM): 70.6%
- viability, T/C (second compound 3.16 µM, first compound 3.16 µM): 25%
- viability, T/C (second compound 3.16 µM, first compound 10 µM): 0.6%
- viability, T/C (second compound 10 µM, first compound 0.0316 µM): 83.7%
- viability, T/C (second compound 10 µM, first compound 0.1 µM): 77%
- viability, T/C (second compound 10 µM, first compound 0.316 µM): 94.5%
- viability, T/C (second compound 10 µM, first compound 1 µM): 85.9%
- viability, T/C (second compound 10 µM, first compound 3.16 µM): 5.34%
- viability, T/C (second compound 10 µM, first compound 10 µM): 0.28%
